We go through 13 compounds from patent publication US9862676B2, “Hydroxamic acid derivative or salt thereof” (TOYAMA CHEMICAL CO., LTD., priority 2013, dated 2018).

Molecules are shown by their SMILES. Values after ≈ are worked out from the molar mass of the structure shown.

For series [1], the target named is T1, Pseudomonas aeruginosa LpxC enzyme (Pseudomonas aeruginosa, UniProt P47205).
T1 construct: made in house; host or cells: Escherichia coli
T1 sequence (P47205 1-303): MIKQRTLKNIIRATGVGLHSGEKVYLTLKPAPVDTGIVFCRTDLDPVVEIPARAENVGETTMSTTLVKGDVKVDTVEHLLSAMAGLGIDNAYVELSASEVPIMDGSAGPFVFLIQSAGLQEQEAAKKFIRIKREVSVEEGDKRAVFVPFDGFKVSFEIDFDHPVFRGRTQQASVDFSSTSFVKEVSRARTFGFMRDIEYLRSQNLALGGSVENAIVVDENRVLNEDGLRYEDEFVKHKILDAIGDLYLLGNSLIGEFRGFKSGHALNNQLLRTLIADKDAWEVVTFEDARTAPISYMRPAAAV
The series is described as follows: Test to evaluate Pseudomonas aeruginosa LpxC enzyme inhibitory activity. The series is classed as biochemical. The method, then:
The Pseudomonas aeruginosa LpxC enzyme activity was measured by reacting LpxC with its substrate UDP-3-O—(R-3-hydroxydecanoyl)-N-acetylglucosamine and measuring the amount of the reaction product by the quantification of an amino group present in the product. This measurement was carried out according to a method described in, for example, International Publication No. WO 11/132712 pamphlet or a method similar thereto.
Specifically, to the Pseudomonas aeruginosa LpxC enzyme (which was obtained by preparing chromosomal DNA from Pseudomonas aeruginosa, obtaining the Pseudomonas aeruginosa LpxC gene by PCR (polymerase chain reaction) using LpxC-specific primers, and incorporating this gene into a vector, followed by gene expression using Escherichia coli), 20 μmol/L UDP-3-O—(R-3-hydroxydecanoyl)-N-acetylglucosamine (Wako Pure Chemical Industries, Ltd.) was added, and the mixture was incubated at 25° C. for 1 hour. This reaction was carried out in a 40 mmol/L HEPES buffer solution (pH 8.0) containing 0.02% Brij 35 and 80 μmol/L dithiothreitol. The reaction was terminated by the addition of 20% acetic acid (final concentration: 0.95%) to the reaction solution. Then, fluorescamine (final concentration: 1.6 mg/mL) dissolved in anhydrous dioxane was added thereto. The amount of the reaction product was detected at an excitation wavelength/fluorescence wavelength=390 nm/495 nm. Each test compound was allowed to coexist at various concentrations in the reaction to obtain an inhibition curve.

The subject of series [2] is Escherichia coli ATCC25922 strain. Put plainly: Antibacterial activity, MIC by broth microdilution (CLSI). Format: cell-based. The method, then:
(§1) The minimum inhibitory concentration (MIC) was measured according to the CLSI (Clinical and Laboratory Standards Institute) standard method using a broth microdilution method given below. The bacteria used were a Pseudomonas aeruginosa ATCC27853 strain, an Escherichia coli ATCC25922 strain and a Klebsiella pneumoniae ATCC13883 strain. Test bacterial cells of each strain cultured overnight in a Mueller-Hinton agar medium were scraped off and suspended at the McFarland 0.5 standard, and this suspension was diluted 10-fold to prepare an inoculum solution. The inoculum solution (0.005 mL) was inoculated to a cation-adjusted Mueller-Hinton medium containing each test compound and cultured at 35° C. for 16 to 20 hours. The minimum drug concentration at which bacterial growth was not visible to the naked eye was defined as MIC.
In general terms: In broth dilution the organism is exposed to a series of concentrations in liquid medium.

Series [3] has as its system Klebsiella pneumoniae ATCC13883 strain. Described as above. The series is classed as cell-based. The protocol: as §1
In series [4] the test system is Pseudomonas aeruginosa ATCC27853 strain. Described as above. Format: cell-based. The method, then:
as §1

The nature of series [5]: Test on inhibition of Vero cell growth (XTT). Conditions: African green monkey, Vero cells, 3 days culture, read-out: CC50 (concentration inhibiting 50% of cell growth). The series is classed as cell-based. The method, then:
Each test compound was dissolved in dimethyl sulfoxide, adjusted to each concentration using E'MEM, and then dispensed at 0.1 mL/well to 96-well microplates. The Vero cell suspension was prepared at 3×10^4 cells/mL using E'MEM supplemented with 20% FBS, inoculated thereto at 0.1 mL/well, and cultured at 37° C. for 3 days under 5% CO2. At the completion of the culture, PBS supplemented with 1 mg/mL 2,3-bis-(2-methoxy-4-nitro-5-sulfophenyl)-5-((phenylamino)carbonyl)-2H-tetrazolium inner salt monosodium salt (XTT) and 25 μM phenazine methosulfate (PMS) was prepared and added thereto at 50 μL/well. Approximately 2 hours later, the absorbance at 450 nm was measured using a microplate reader.
In general terms: Tetrazolium dyes change colour on reduction, which living cells bring about.

The test system of series [6] is multidrug-resistant Pseudomonas aeruginosa clinical isolate (S-2838 strain). Put plainly: Defense against mouse systemic infection using multidrug-resistant Pseudomonas aeruginosa. Format: in vivo. Conditions: male ICR mice, S-2838 strain i.p., single intravenous dose 50 mg/kg 1 hour after infection. The method, then: The mice used were male ICR SPF mice (4 weeks old: 5 individuals per group). To prepare a bacterial inoculum solution, a multidrug-resistant Pseudomonas aeruginosa clinical isolate (S-2838 strain) cultured overnight at 37° C. on a Mueller-Hinton agar plate was cultured for 5 hours in a cation-adjusted Mueller-Hinton medium and then diluted 10-fold with a 10% mucin/phosphate buffer solution to prepare the inoculum solution. Infection was induced by the intraperitoneal inoculation of 0.5 mL of the inoculum solution (approximately 10^6 CFU/mouse) to each mouse. Each test compound was dissolved in a 10% hydroxypropylated β-cyclodextrin/2.5% mannitol aqueous solution and intravenously administered to the tail a single dose of 50 mg/kg at 1 hour after the infection. Three days after the infection, the number of survivors was recorded.

Regarding `CNC(=O)[C@@](C)(C(=O)NO)N(C)C(=O)c1ccc(C#Cc2ccc(COCCO)cc2)cc1` [Example 1, (2S)—N-hydroxy-2-((4-((4-((2-hydroxyethoxy)methyl)phenyl)ethynyl)benzoyl)(methyl)amino)-N′,2-dimethyl-malonamide], the IC50 in series [1] is less than 50 nM. Also, the MIC in series [2] is 0.25 µg/mL (≈ 0.551 µM); in series [3] it was 1 µg/mL (≈ 2.21 µM); in series [4] it was 1 µg/mL (≈ 2.21 µM). Moreover, in series [5], the CC50 at 3 days is not below 100 µg/mL.
On to `CNC(=O)[C@@](C)(C(=O)NO)N(C)C(=O)c1ccc(C#Cc2ccc(C(O)CO)cc2)cc1` (stereo partly drawn) [Example 3, (2S)-2-((4-((4-(1,2-dihydroxyethyl)phenyl)ethynyl)benzoyl)(methyl)amino)-N-hydroxy-N′,2-dimethyl-malonamide], for which, in series [1], the IC50 is less than 50 nM. For the same compound, in series [4], the MIC came to 1 µg/mL (≈ 2.28 µM). The CC50 at 3 days in series [5] is not below 100 µg/mL.
Consider `CNC(=O)[C@@](C)(C(=O)NO)N(C)C(=O)c1ccc(C#Cc2ccc(C(O)COC)cc2)cc1` (stereo partly drawn) [Example 13, (2S)—N-hydroxy-2-((4-((4-(1-hydroxy-2-methoxyethyl)phenyl)ethynyl)benzoyl)(methyl)amino)-N′,2-dimethyl-malonamide], for which the MIC in series [2] is 0.25 µg/mL (≈ 0.551 µM); in series [3] it was 1 µg/mL (≈ 2.21 µM); in series [4], 1 µg/mL (≈ 2.21 µM). The CC50 at 3 days in series [5] was not below 100 µg/mL.
In series [1], `CNC(=O)[C@@](C)(C(=O)NO)N(C)C(=O)c1ccc(C#Cc2ccc(C(C)O)cc2)cc1` (stereo partly drawn) [Example 16, (2S)—N-hydroxy-2-((4-((4-(1-hydroxyethyl)phenyl)ethynyl)benzoyl)(methyl)amino)-N′,2-dimethyl-malonamide] gave a concentration for half-maximal inhibition (IC50) of less than 50 nM. Also, the MIC stood at 0.25 µg/mL (≈ 0.59 µM) in series [2], 1 µg/mL (≈ 2.36 µM) in series [3] and 1 µg/mL (≈ 2.36 µM) in series [4].
As for `CNC(=O)[C@@](C)(C(=O)NO)N(C)C(=O)c1ccc(C#Cc2ccc(C(O)CCO)cc2)cc1` (stereo partly drawn) [Example 17, (2S)-2-((4-((4-(1,3-dihydroxypropyl)phenyl)ethynyl)benzoyl)(methyl)amino)-N-hydroxy-N′,2-dimethylmalonamide], in series [1], the half-inhibitory concentration (IC50) was less than 50 nM. Also, the MIC in series [4] is 1 µg/mL (≈ 2.21 µM). Besides, the CC50 at 3 days in series [5] was not below 100 µg/mL.
`CNC(=O)[C@@](C)(C(=O)NO)N(C)C(=O)c1ccc(C#Cc2ccc([C@@H](O)CO)cc2)cc1` [Example 19, (2S)-2-((4-((4-((1R)-1,2-dihydroxyethyl)phenyl)ethynyl)benzoyl)(methyl)amino)-N-hydroxy-N′,2-dimethyl-malonamide] had an IC50 in series [1] of less than 50 nM. In series [4], the MIC was determined as 1 µg/mL (≈ 2.28 µM). Further, the “mice surviving 3 days after the bacterial inoculation” value in series [6] is given as 100%. For the same compound, in series [5], the CC50 at 3 days was not below 100 µg/mL.
On to `CNC(=O)[C@@](C)(C(=O)NO)N(C)C(=O)c1ccc(C#Cc2ccc([C@H](O)COCCO)cc2)cc1` [Example 24, (2S)—N-hydroxy-2-((4-((4-((1S)-1-hydroxy-2-(2-hydroxyethoxy)ethyl)phenyl)ethynyl)benzoyl)(methyl)amino)-N′,2-dimethyl-malonamide], for which the IC50 in series [1] was less than 50 nM. For the same compound, the MIC in series [2] came out at 0.5 µg/mL (≈ 1.03 µM); in series [4], 1 µg/mL (≈ 2.07 µM). For the same compound, the CC50 at 3 days in series [5] is not below 100 µg/mL.
`CNC(=O)[C@@](C)(C(=O)NO)N(C)C(=O)c1ccc(C#Cc2ccc([C@H](O)CCO)cc2)cc1` [Example 25, (2S)-2-((4-((4-((1R)-1,3-dihydroxypropyl)phenyl)ethynyl)benzoyl)(methyl)amino)-N-hydroxy-N′,2-dimethyl-malonamide] returned an IC50 in series [1] of less than 50 nM. The minimal inhibitory concentration (MIC) in series [2] and in series [4] was 0.5 µg/mL (≈ 1.1 µM) in each case. The CC50 at 3 days in series [5] is not below 100 µg/mL.
On to `CNC(=O)[C@@](C)(C(=O)NO)N(C)C(=O)c1ccc(C#Cc2ccc([C@H](O)[C@H](C)O)cc2)cc1` [Example 33, (2S)-2-((4-((4-((1S,2S)-1,2-dihydroxypropyl)phenyl)ethynyl)benzoyl)(methyl)amino)-N-hydroxy-N′,2-dimethylmalonamide], for which, in series [1], the IC50 is less than 50 nM. In addition, the figures for the MIC in series [2] and in series [4] were 0.5 µg/mL (≈ 1.1 µM) and 1 µg/mL (≈ 2.21 µM), respectively. The CC50 at 3 days in series [5] was not below 100 µg/mL.
In series [1], `CNC(=O)[C@@](C)(C(=O)NO)N(C)C(=O)c1ccc(C#Cc2ccc(C(O)CCCO)cc2)cc1` (stereo partly drawn) [Example 35, (2S)-2-((4-((4-(1,4-dihydroxybutyl)phenyl)ethynyl)benzoyl)(methyl)amino)-N-hydroxy-N′,2-dimethyl-malonamide] gave an IC50 of less than 50 nM. The MIC in series [3] and in series [4] was 1 µg/mL (≈ 2.14 µM) each time. Also, in series [5], the CC50 at 3 days was not below 100 µg/mL.
The compound `CNC(=O)[C@@](C)(C(=O)NO)N(C)C(=O)c1ccc(C#Cc2ccc([C@H](O)CCOC)cc2)cc1` [Example 36, (2S)—N-hydroxy-2-((4-((4-((1R)-1-hydroxy-3-methoxypropyl)phenyl)ethynyl)benzoyl)(methyl)amino)-N′,2-dimethylmalonamide] gave an IC50 in series [1] of less than 50 nM. In addition, the values for the MIC in series [2], in series [3] and in series [4] were 0.25 µg/mL (≈ 0.535 µM), 1 µg/mL (≈ 2.14 µM) and 0.5 µg/mL (≈ 1.07 µM), respectively. Moreover, the CC50 at 3 days in series [5] was not below 100 µg/mL.
`CNC(=O)[C@@](C)(C(=O)NO)N(C)C(=O)c1ccc(C#Cc2ccc([C@H](O)CCCO)cc2)cc1` [Example 39, (2S)-2-((4-((4-((1R)-1,4-dihydroxybutyl)phenyl)ethynyl)benzoyl)(methyl)amino)-N-hydroxy-N′,2-dimethyl-malonamide] had an IC50 in series [1] of less than 50 nM. For the same compound, the figures for the MIC in series [2], in series [3] and in series [4] were 0.5 µg/mL (≈ 1.07 µM), 1 µg/mL (≈ 2.14 µM) and 1 µg/mL (≈ 2.14 µM), respectively. The “mice surviving 3 days after the bacterial inoculation” value in series [6] is listed as 100%.
The compound `CNC(=O)[C@@](C)(C(=O)NO)N(C)C(=O)c1ccc(C#Cc2ccc([C@H](O)/C=C/CO)cc2)cc1` [Example 40, (2S)-2-((4-((4-((1R,2E)-1,4-dihydroxybut-2-ene-1-yl)phenyl)ethynyl)benzoyl)(methyl)amino)-N-hydroxy-N′,2-dimethyl-malonamide] gave an IC50 in series [1] of less than 50 nM. Also, the MIC was found to be 0.5 µg/mL (≈ 1.07 µM) in series [2], 1 µg/mL (≈ 2.15 µM) in series [3] and 1 µg/mL (≈ 2.15 µM) in series [4].

By IC50 is commonly meant the concentration needed to halve the response being measured. Low values mean greater potency in that assay, high ones weaker potency in that assay. As a reminder, the MIC is the lowest concentration found to suppress growth.
